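A five-concentration, 48-hour dose response in 96-well plates underlies each endpoint, interpolated linearly between surrounding concentrations. At the TGI there is no net growth.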
Tests used:
Experiment in all cases: NCI anticancer screen, dose series, 48 h
UACC-257 melanoma = tested on: UACC-257 melanoma
SK-MEL-2 melanoma = tested on: SK-MEL-2 melanoma
HCT-15 colon = tested on: HCT-15 colon
HCT-116 colon = tested on: HCT-116 colon
HOP-62 NSCLC = tested on: HOP-62 NSCLC
NCI-H226 lung = tested on: NCI-H226 lung
A498 renal = tested on: A498 renal
DMS 273 small cell lung = tested on: DMS 273 small cell lung
SK-MEL-28 melanoma = tested on: SK-MEL-28 melanoma
SNB-75 CNS = tested on: SNB-75 CNS
SW-620 colon = tested on: SW-620 colon
SN12C renal = tested on: SN12C renal
DLD-1 colon = tested on: DLD-1 colon
CCRF-CEM leukemia = tested on: CCRF-CEM leukemia
LOX IMVI melanoma = tested on: LOX IMVI melanoma
U251 CNS = tested on: U251 CNS
UACC-62 melanoma = tested on: UACC-62 melanoma
HT29 colon = tested on: HT29 colon
SK-MEL-5 melanoma = tested on: SK-MEL-5 melanoma
OVCAR-4 ovarian = tested on: OVCAR-4 ovarian
M14 melanoma = tested on: M14 melanoma
NCI-H23 lung = tested on: NCI-H23 lung
IGROV1 ovarian = tested on: IGROV1 ovarian
TK-10 renal = tested on: TK-10 renal
KM20L2 colon = tested on: KM20L2 colon
RXF 393 renal = tested on: RXF 393 renal
NCI-H460 lung = tested on: NCI-H460 lung
SNB-19 CNS = tested on: SNB-19 CNS
ACHN renal = tested on: ACHN renal
OVCAR-8 ovarian = tested on: OVCAR-8 ovarian
LXFL 529 NSCLC = tested on: LXFL 529 NSCLC
HCC-2998 colon = tested on: HCC-2998 colon
NCI-H522 lung = tested on: NCI-H522 lung
786-0 renal = tested on: 786-0 renal
SNB-78 CNS = tested on: SNB-78 CNS
XF 498 CNS = tested on: XF 498 CNS
M19-MEL melanoma = tested on: M19-MEL melanoma
MALME-3M melanoma = tested on: MALME-3M melanoma
SF-268 CNS = tested on: SF-268 CNS
SK-OV-3 ovarian = tested on: SK-OV-3 ovarian
MOLT-4 leukemia = tested on: MOLT-4 leukemia
COLO 205 colon = tested on: COLO 205 colon
A549 NSCLC = tested on: A549 NSCLC
SR leukemia = tested on: SR leukemia
KM12 colon = tested on: KM12 colon
EKVX NSCLC = tested on: EKVX NSCLC
OVCAR-3 ovarian = tested on: OVCAR-3 ovarian
HL-60(TB) leukemia = tested on: HL-60(TB) leukemia
K-562 leukemia = tested on: K-562 leukemia
SF-539 CNS = tested on: SF-539 CNS
UO-31 renal = tested on: UO-31 renal
OVCAR-5 ovarian = tested on: OVCAR-5 ovarian
CAKI-1 renal = tested on: CAKI-1 renal
SF-295 CNS = tested on: SF-295 CNS
HOP-92 NSCLC = tested on: HOP-92 NSCLC
DMS 114 small cell lung = tested on: DMS 114 small cell lung
RPMI-8226 leukemia = tested on: RPMI-8226 leukemia

CCOC(=N)CC(=O)Nc1ccc(Cl)cc1
TGI (UACC-257 melanoma): > 100 µM
TGI (SK-MEL-2 melanoma): > 100 µM
TGI (HCT-15 colon): > 100 µM
TGI (HCT-116 colon): > 100 µM
TGI (HOP-62 NSCLC): > 100 µM
TGI (NCI-H226 lung): > 100 µM
TGI (A498 renal): > 100 µM
TGI (DMS 273 small cell lung): > 100 µM
TGI (SK-MEL-28 melanoma): > 100 µM
TGI (SNB-75 CNS): > 100 µM
TGI (SW-620 colon): > 100 µM
TGI (SN12C renal): > 100 µM
TGI (DLD-1 colon): > 100 µM
TGI (CCRF-CEM leukemia): > 100 µM
TGI (LOX IMVI melanoma): > 100 µM
TGI (U251 CNS): > 100 µM
TGI (UACC-62 melanoma): > 100 µM
TGI (HT29 colon): > 100 µM
TGI (SK-MEL-5 melanoma): > 100 µM
TGI (OVCAR-4 ovarian): > 100 µM
TGI (M14 melanoma): > 100 µM
TGI (NCI-H23 lung): > 100 µM
TGI (IGROV1 ovarian): > 100 µM
TGI (TK-10 renal): > 100 µM
TGI (KM20L2 colon): > 100 µM
TGI (RXF 393 renal): > 100 µM
TGI (NCI-H460 lung): > 100 µM
TGI (SNB-19 CNS): > 100 µM
TGI (ACHN renal): > 100 µM
TGI (OVCAR-8 ovarian): > 100 µM
TGI (LXFL 529 NSCLC): > 100 µM
TGI (HCC-2998 colon): > 100 µM
TGI (NCI-H522 lung): > 100 µM
TGI (786-0 renal): > 100 µM
TGI (SNB-78 CNS): > 100 µM
TGI (XF 498 CNS): > 100 µM
TGI (M19-MEL melanoma): > 100 µM
TGI (MALME-3M melanoma): > 100 µM
TGI (SF-268 CNS): > 100 µM
TGI (SK-OV-3 ovarian): > 100 µM
TGI (MOLT-4 leukemia): > 100 µM
TGI (COLO 205 colon): > 100 µM
TGI (A549 NSCLC): > 100 µM
TGI (SR leukemia): > 100 µM
TGI (KM12 colon): > 100 µM
TGI (EKVX NSCLC): > 100 µM
TGI (OVCAR-3 ovarian): > 100 µM
TGI (HL-60(TB) leukemia): > 100 µM
TGI (K-562 leukemia): > 100 µM
TGI (SF-539 CNS): > 100 µM
TGI (UO-31 renal): > 100 µM
TGI (OVCAR-5 ovarian): > 100 µM
TGI (CAKI-1 renal): > 100 µM
TGI (SF-295 CNS): > 100 µM

CCCCCC(CN1CCOCC1)C(=O)/C=C/c1ccccc1 (stereo not given)
TGI (UACC-257 melanoma): 7.83 µM
TGI (HCT-15 colon): 4.92 µM
TGI (HCT-116 colon): 3.34 µM
TGI (HOP-62 NSCLC): 16.9 µM
TGI (NCI-H226 lung): 9.31 µM
TGI (DMS 273 small cell lung): 6.1 µM
TGI (SK-MEL-28 melanoma): 19.1 µM
TGI (SNB-75 CNS): 20 µM
TGI (SW-620 colon): 3.33 µM
TGI (SN12C renal): 10.5 µM
TGI (CCRF-CEM leukemia): 6.72 µM
TGI (LOX IMVI melanoma): 2.67 µM
TGI (U251 CNS): 9.19 µM
TGI (UACC-62 melanoma): 3.37 µM
TGI (HT29 colon): 10.3 µM
TGI (SK-MEL-5 melanoma): 3.42 µM
TGI (OVCAR-4 ovarian): 8.19 µM
TGI (M14 melanoma): 5.44 µM
TGI (NCI-H23 lung): 11.9 µM
TGI (KM20L2 colon): 10.9 µM
TGI (RXF 393 renal): 3.47 µM
TGI (NCI-H460 lung): 11.1 µM
TGI (SNB-19 CNS): 13.2 µM
TGI (HCC-2998 colon): 4.46 µM
TGI (786-0 renal): 3.14 µM
TGI (XF 498 CNS): 3.29 µM
TGI (M19-MEL melanoma): 7.05 µM
TGI (MALME-3M melanoma): 6.42 µM
TGI (SF-268 CNS): 5.02 µM
TGI (SK-OV-3 ovarian): 11.8 µM
TGI (HOP-92 NSCLC): 8.54 µM
TGI (MOLT-4 leukemia): 4.61 µM
TGI (COLO 205 colon): 13.9 µM
TGI (A549 NSCLC): 12 µM
TGI (SR leukemia): 8.5 µM
TGI (KM12 colon): 3.79 µM
TGI (EKVX NSCLC): 22.5 µM
TGI (OVCAR-3 ovarian): 8.64 µM
TGI (HL-60(TB) leukemia): 5.42 µM
TGI (K-562 leukemia): 5.85 µM
TGI (DMS 114 small cell lung): 5.17 µM
TGI (SF-539 CNS): 4.71 µM
TGI (UO-31 renal): 20.1 µM
TGI (OVCAR-5 ovarian): 11.1 µM
TGI (RPMI-8226 leukemia): 9.03 µM
TGI (SF-295 CNS): 10.2 µM

Source: PubChem BioAssay (NCI)
